Measurements: patent US11008317B2, “Triazolopyridine inhibitors of myeloperoxidase and/or EPX” (priority 2016, dated 2021)

What was measured:
[1] = molecular target: T1, myeloperoxidase (Homo sapiens, UniProt P05164); experiment: MPO Peroxidation Assay (Amplex Red Assay); assay type: biochemical; conditions: potency range class, read-out: Amplex Red Assay IC50 value
T1 sequence (P05164 49-745): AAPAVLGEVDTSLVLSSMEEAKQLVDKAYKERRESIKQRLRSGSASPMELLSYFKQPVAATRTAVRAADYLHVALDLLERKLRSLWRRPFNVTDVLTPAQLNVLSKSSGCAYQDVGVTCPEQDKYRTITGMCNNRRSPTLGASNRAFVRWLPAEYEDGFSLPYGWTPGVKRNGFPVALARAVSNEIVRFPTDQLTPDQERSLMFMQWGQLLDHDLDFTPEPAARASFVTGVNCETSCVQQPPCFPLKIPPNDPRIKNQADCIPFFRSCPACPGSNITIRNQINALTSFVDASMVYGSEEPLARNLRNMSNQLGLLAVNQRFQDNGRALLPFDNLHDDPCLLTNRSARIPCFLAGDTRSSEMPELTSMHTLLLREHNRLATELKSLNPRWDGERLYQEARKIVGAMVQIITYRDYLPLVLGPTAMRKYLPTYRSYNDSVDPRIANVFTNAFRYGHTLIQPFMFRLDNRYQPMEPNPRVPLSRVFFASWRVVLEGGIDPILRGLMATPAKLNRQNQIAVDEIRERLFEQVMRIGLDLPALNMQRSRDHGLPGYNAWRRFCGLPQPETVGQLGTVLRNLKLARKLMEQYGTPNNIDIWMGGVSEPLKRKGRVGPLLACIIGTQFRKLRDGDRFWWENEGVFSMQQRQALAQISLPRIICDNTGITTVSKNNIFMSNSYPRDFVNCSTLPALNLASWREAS

[2] = molecular target: T1, myeloperoxidase; experiment: MPO Chlorination Assay (APF Assay); assay type: biochemical; conditions: potency range class, read-out: APF Assay IC50 value

Nc1cc(C(CCNC2(c3ccccc3)CCC(c3ccccc3)CC2)c2ccccc2)c2nn[nH]c2n1 (stereo not drawn) [Example 144, 7-{3-[(1,4-diphenylcyclohexyl)amino]-1-phenylpropyl}-3H-[1,2,3]triazolo [4,5-b]pyridin-5-amine]
IC50 [1]: 1000 to 10000 nM
IC50 [2]: 101 to 999 nM

Nc1cc(C(CCNC23CCC(c4ccccc4)(CC2)C(O)C3)c2ccccc2)c2nn[nH]c2n1 (stereo not drawn) [Example 145, 4-[(3-{5-amino-3H-[1,2,3]triazolo[4,5-b]pyridin-7-yl}-3-phenylpropyl)amino]-1-phenylbicyclo [2.2.2]octan-2-ol]
IC50 [1]: 1 to 100 nM
IC50 [2]: 1 to 100 nM

Nc1cc(C(CCN[C@H]2CC[C@H](n3cncn3)CC2)c2ccccc2)c2nn[nH]c2n1 (stereo partly drawn) [Example 146, 7-(1-phenyl-3-{[(trans)-4-(1H-1,2,4-triazol-1-yl)cyclohexyl]amino}propyl)-3H-[1,2,3] triazolo[4,5-b] pyridin-5-amine]
IC50 [1]: 1000 to 10000 nM
IC50 [2]: 101 to 999 nM

CC1CC2(NCCC(c3ccccc3)c3cc(N)nc4[nH]nnc34)CCC1(c1ccccc1)CC2 (stereo not drawn) [Example 147, 7-[3-({3-methyl-4-phenylbicyclo[2.2.2]octan-1-yl}amino)-1-phenylpropyl]-3H-[1,2,3]triazolo [4,5-b]pyridin-5-amine]
IC50 [1]: 1 to 100 nM
IC50 [2]: 1 to 100 nM

COC1CC2(NCCC(c3ccccc3)c3cc(N)nc4[nH]nnc34)CCC1(c1ccccc1)CC2 (stereo not drawn) [Example 148, 7-[3-({3-methoxy-4-phenylbicyclo [2.2.2]octan-1-yl}amino)-1-phenylpropyl]-3H-[1,2,3]triazolo[4,5-b]pyridin-5-amine]
IC50 [1]: 1 to 100 nM
IC50 [2]: 1 to 100 nM

Nc1cc(C(CCNC2CC3CCC(C2)C3c2ccccc2)c2ccccc2)c2nn[nH]c2n1 (stereo not drawn) [Example 149, 7-[1-phenyl-3-({8-phenylbicyclo[3.2.1]octan-3-yl}amino)propyl]-3H-[1,2,3]triazolo[4,5-b] pyridin-5-amine]
IC50 [1]: 1000 to 10000 nM
IC50 [2]: 101 to 999 nM

Nc1cc(C(CCNC2CC[C@H](c3ccccc3)[C@@H](O)C2)c2ccccc2)c2nn[nH]c2n1 (stereo partly drawn) [Example 150, (1S,2R)-5-[(3-{5-amino-3H-[1,2,3]triazolo[4,5-b]pyridin-7-yl}-3-phenylpropyl)amino]-2-phenylcyclohexan-1-ol]
IC50 [1]: 101 to 999 nM
IC50 [2]: 1 to 100 nM

Nc1cc(C(CCNC2(C(F)(F)F)CCC(c3ccccc3)CC2)c2ccccc2)c2nn[nH]c2n1 (stereo not drawn) [Example 151, 7-(1-phenyl-3-{[4-phenyl-1-(trifluoromethyl)cyclohexyl]amino}propyl)-3H-[1,2,3]triazolo[4,5-b] pyridin-5-amine]
IC50 [1]: 1000 to 10000 nM
IC50 [2]: 1000 to 10000 nM

Nc1cc(C(CCNC23CCC(c4ccccc4)(CC2)CC3O)c2ccccc2)c2nn[nH]c2n1 (stereo not drawn) [Example 152, 1-[(3-{5-amino-3H-[1,2,3]triazolo[4,5-b]pyridin-7-yl}-3-phenylpropyl)amino]-4-phenylbicyclo [2.2.2]octan-2-ol]
IC50 [1]: 1 to 100 nM
IC50 [2]: 1 to 100 nM

COC1CC2(c3ccccc3)CCC1(NCC[C@H](c1ccccc1)c1cc(N)nc3[nH]nnc13)CC2 (stereo partly drawn) [Example 153, 7-[(1R)-3-({2-methoxy-4-phenylbicyclo[2.2.2]octan-1-yl}amino)-1-phenylpropyl]-3H-[1,2,3]triazolo[4,5-b]pyridin-5-amine]
IC50 [1]: 1 to 100 nM
IC50 [2]: 1 to 100 nM

Nc1cc([C@H](CCNC23CCC(c4ccccc4)(CC2)C(O)C3)c2ccccc2)c2nn[nH]c2n1 (stereo partly drawn) [Example 154, 4-{[(3R)-3-{5-amino-3H-[1,2,3]triazolo [4,5-b]pyridin-7-yl}-3-phenylpropyl]amino}-1-phenylbicyclo [2.2.2]octan-2-ol]
IC50 [1]: 1 to 100 nM
IC50 [2]: 1 to 100 nM

N#Cc1cccc(C(CCNC2CCC(c3ccccc3)CC2)c2cc(N)nc3[nH]nnc23)c1 (stereo not drawn) [Example 155, 3-(1-{5-amino-3H-[1,2,3]triazolo [4,5-b]pyridin-7-yl}-3-[(4-phenylcyclohexyl)amino]propyl)benzonitrile]
IC50 [1]: 101 to 999 nM
IC50 [2]: 1 to 100 nM

Nc1cc(C(CCN[C@H]2CC[C@H](c3ccccc3)CC2)c2cccc(F)c2)c2nn[nH]c2n1 (stereo partly drawn) [Example 156, 7-[1-(3-fluorophenyl)-3-{[(trans)-4-phenylcyclohexyl]amino}propyl]-3H-[1,2,3]triazolo [4,5-b]pyridin-5-amine]
IC50 [1]: 101 to 999 nM
IC50 [2]: 1 to 100 nM

Nc1cc(C(CCN[C@H]2CC[C@H](c3ccccc3)CC2)c2ccccc2F)c2nn[nH]c2n1 (stereo partly drawn) [Example 157, 7-[1-(2-fluorophenyl)-3-{[(trans)-4-phenylcyclohexyl]amino}propyl]-3H-[1,2,3]triazolo [4,5-b]pyridin-5-amine]
IC50 [1]: 101 to 999 nM
IC50 [2]: 1 to 100 nM

COc1cccc(C(CCN[C@H]2CC[C@H](c3ccccc3)CC2)c2cc(N)nc3[nH]nnc23)c1 (stereo partly drawn) [Example 158, 7-[1-(3-methoxyphenyl)-3-{[(trans)-4-phenylcyclohexyl]amino}propyl]-3H-[1,2,3]triazolo [4,5-b]pyridin-5-amine]
IC50 [1]: 101 to 999 nM
IC50 [2]: 1 to 100 nM

N#Cc1ccc(C(CCN[C@H]2CC[C@H](c3ccccc3)CC2)c2cc(N)nc3[nH]nnc23)cc1 (stereo partly drawn) [Example 159, 4-(1-{5-amino-3H-[1,2,3]triazolo [4,5-b]pyridin-7-yl}-3-{[(trans)-4-phenylcyclohexyl]amino}propyl) benzonitrile]
IC50 [1]: 101 to 999 nM
IC50 [2]: 1000 to 10000 nM

NCc1ccc(C(CCN[C@H]2CC[C@H](c3ccccc3)CC2)c2cc(N)nc3[nH]nnc23)cc1 (stereo partly drawn) [Example 160, 7-{1-[4-(aminomethyl)phenyl]-3-{[(trans)-4-phenylcyclohexyl]amino}propyl}-3H-[1,2,3]triazolo[4,5-b]pyridin-5-amine]
IC50 [1]: 101 to 999 nM
IC50 [2]: 1000 to 10000 nM

N#Cc1ccccc1C(CCN[C@H]1CC[C@H](c2ccccc2)CC1)c1cc(N)nc2[nH]nnc12 (stereo partly drawn) [Example 161, 2-(1-{5-amino-3H-[1,2,3]triazolo [4,5-b]pyridin-7-yl}-3-{[(trans)-4-phenylcyclohexyl]amino}propyl) benzonitrile]
IC50 [1]: 1000 to 10000 nM
IC50 [2]: 101 to 999 nM

Nc1cc(C(CCN[C@H]2CC[C@H](c3ccccc3)CC2)c2cccc(Cl)c2)c2nn[nH]c2n1 (stereo partly drawn) [Example 162, 7-[1-(3-chlorophenyl)-3-{[(trans)-4-phenylcyclohexyl]amino}propyl]-3H-[1,2,3]triazolo [4,5-b]pyridin-5-amine]
IC50 [1]: 101 to 999 nM
IC50 [2]: 1 to 100 nM

Nc1cc(C(CCN[C@H]2CC[C@H](c3ccccc3)CC2)c2cccc(CO)c2)c2nn[nH]c2n1 (stereo partly drawn) [Example 164, [3-(1-{5-amino-3H-[1,2,3]triazolo [4,5-b]pyridin-7-yl}-3-{[(trans)-4-phenylcyclohexyl]amino}propyl)phenyl]methanol]
IC50 [1]: 1000 to 10000 nM
IC50 [2]: 1 to 100 nM

Nc1cc(C(CCN[C@H]2CC[C@H](c3ccccc3)CC2)c2cccc(S(N)(=O)=O)c2)c2nn[nH]c2n1 (stereo partly drawn) [Example 165, 3-(1-{5-amino-3H-[1,2,3]triazolo [4,5-b]pyridin-7-yl}-3-{[(trans)-4-phenylcyclohexyl]amino}propyl) benzene-1-sulfonamide]
IC50 [1]: 101 to 999 nM
IC50 [2]: 101 to 999 nM

Nc1cc(C(CCN[C@H]2CC[C@H](c3ccccc3)CC2)c2cccc(OC(F)F)c2)c2nn[nH]c2n1 (stereo partly drawn) [Example 166, 7-{1-[3-(difluoromethoxy)phenyl]-3-{[(trans)-4-phenylcyclohexyl]amino}propyl}-3H-[1,2,3]triazolo[4,5-b]pyridin-5-amine]
IC50 [1]: 101 to 999 nM
IC50 [2]: 1 to 100 nM

Cc1ccc(F)c(C(CCN[C@H]2CC[C@H](c3ccccc3)CC2)c2cc(N)nc3[nH]nnc23)c1 (stereo partly drawn) [Example 168, 7-[1-(2-fluoro-5-methylphenyl)-3-{[(trans)-4-phenylcyclohexyl]amino}propyl]-3H-[1,2,3]triazolo [4,5-b]pyridin-5-amine]
IC50 [1]: 1000 to 10000 nM
IC50 [2]: 1 to 100 nM

N#Cc1cccc(C(CCNC23CCC(c4ccccc4)(CC2)CC3)c2cc(N)nc3[nH]nnc23)c1 (stereo not drawn) [Example 171, 7-(1-(3-cyanophenyl)-3-((4-phenylbicyclo[2.2.2]octan-1-yl)amino)propyl)-3H-[1,2,3]triazolo[4,5-b]pyridin-5-amine]
IC50 [1]: 1 to 100 nM
IC50 [2]: 1 to 100 nM

NCc1cccc(C(CCNC23CCC(c4ccccc4)(CC2)CC3)c2cc(N)nc3[nH]nnc23)c1 (stereo not drawn) [Example 172, 7-(1-(3-(aminomethyl)phenyl)-3-((4-phenylbicyclo[2.2.2]octan-1-yl)amino)propyl)-3H-[1,2,3]triazolo[4,5-b]pyridin-5-amine]
IC50 [1]: 101 to 999 nM
IC50 [2]: 1 to 100 nM

COc1ccc(CNCCC(c2ccccc2)c2cc(N)nc3[nH]nnc23)cc1 (stereo not drawn) [Example 175, 7-(3-{[(4-methoxyphenyl)methyl]amino}-1-phenylpropyl)-3H-[1,2,3]triazolo [4,5-b]pyridin-5-amine]
IC50 [1]: 101 to 999 nM
IC50 [2]: 101 to 999 nM

Nc1cc(C(CCNCC2CC2c2ccc(F)cc2)c2ccccc2)c2nn[nH]c2n1 (stereo not drawn) [Example 176, 7-[3-({[2-(4-fluorophenyl)cyclopropyl]methyl}amino)-1-phenylpropyl]-3H-[1,2,3]triazolo[4,5-b]pyridin-5-amine]
IC50 [1]: 101 to 999 nM
IC50 [2]: 1 to 100 nM
